The source of these data is patent US20080063601A1, “Compositions and methods relating to polycystic kidney disease” (priority 2004, published 2008).

Assay type in all cases: cell-based
Data set [1] is described as follows: in vitro. The settings on record: human. The source says: (§1) To investigate further the role of calcium in triptolide function Applicant utilized a system to buffer intracellular calcium levels. Various GFP-parvalbumin (PV) fusion proteins can be specifically localized to either the nucleus or the cytoplasm through a nuclear localization or exclusion signal (NLS or NES, respectively) (Pusl, et al., 2002, J Biol Chem 277, 27517-27527). Parvalbumin has two EF-hand calcium binding domains and can efficiently reduce the availability of free calcium in the cell (Pauls, et al., 1996, Biochim Biophys Acta 1306, 39-54). HeLa cells were transiently transfected with the GFP vector control, NES-PV-GFP, or NLS-PV-GFP in calcium containing media and efficient expression of each construct was determined by GFP localization (FIG. 6A). Normal cell growth was first assessed throughout 48 hours with each of the constructs. […] For triptolide experiments, cells were transfected and allowed to express the construct for 24 hours before the addition of 100 nM triptolide. After 24 and 48 hours of treatment, cells were assessed for viability. […] Since the parvalbumin buffering experiments are done in the presence of extracellular calcium, the cell can operate normally in that intracellular calcium stores may be refilled. It is reasonable to expect then if calcium homeostasis is being affected (i.e., cytosolic calcium levels increase) by triptolide, then parvalbumin would eventually reach a saturation point. This might explain why the rescue from apoptosis is transient through the 24 hour time point but is lost by 48 hours.
(§2) All parvalbumin-GFP constructs and control vectors (Pusl, et al., 2002, J Biol Chem 277, 27517-27527) were a gift of Anton Bennett (Yale University). Hela cells were plated out on 6- or 12-well plates at a density of 5×10^5 or 1×10^5, respectively. […] Cell viability was assessed at 24 and 48 hours post triptolide addition by morphology and trypan blue dye exclusion.

Data set [2] has as its system HeLa cells. Description: in vitro. The settings on record: HeLa, 100 nM.
Description: as §1, §2

Data set [3] addresses T1, polycystin-2 (Mus musculus, UniProt O35245).
T1 construct: endogenous in cells; host or cells: Pkd1-/- (PN24) murine kidney proximal tubule epithelial cells
T1 sequence (O35245 1-966): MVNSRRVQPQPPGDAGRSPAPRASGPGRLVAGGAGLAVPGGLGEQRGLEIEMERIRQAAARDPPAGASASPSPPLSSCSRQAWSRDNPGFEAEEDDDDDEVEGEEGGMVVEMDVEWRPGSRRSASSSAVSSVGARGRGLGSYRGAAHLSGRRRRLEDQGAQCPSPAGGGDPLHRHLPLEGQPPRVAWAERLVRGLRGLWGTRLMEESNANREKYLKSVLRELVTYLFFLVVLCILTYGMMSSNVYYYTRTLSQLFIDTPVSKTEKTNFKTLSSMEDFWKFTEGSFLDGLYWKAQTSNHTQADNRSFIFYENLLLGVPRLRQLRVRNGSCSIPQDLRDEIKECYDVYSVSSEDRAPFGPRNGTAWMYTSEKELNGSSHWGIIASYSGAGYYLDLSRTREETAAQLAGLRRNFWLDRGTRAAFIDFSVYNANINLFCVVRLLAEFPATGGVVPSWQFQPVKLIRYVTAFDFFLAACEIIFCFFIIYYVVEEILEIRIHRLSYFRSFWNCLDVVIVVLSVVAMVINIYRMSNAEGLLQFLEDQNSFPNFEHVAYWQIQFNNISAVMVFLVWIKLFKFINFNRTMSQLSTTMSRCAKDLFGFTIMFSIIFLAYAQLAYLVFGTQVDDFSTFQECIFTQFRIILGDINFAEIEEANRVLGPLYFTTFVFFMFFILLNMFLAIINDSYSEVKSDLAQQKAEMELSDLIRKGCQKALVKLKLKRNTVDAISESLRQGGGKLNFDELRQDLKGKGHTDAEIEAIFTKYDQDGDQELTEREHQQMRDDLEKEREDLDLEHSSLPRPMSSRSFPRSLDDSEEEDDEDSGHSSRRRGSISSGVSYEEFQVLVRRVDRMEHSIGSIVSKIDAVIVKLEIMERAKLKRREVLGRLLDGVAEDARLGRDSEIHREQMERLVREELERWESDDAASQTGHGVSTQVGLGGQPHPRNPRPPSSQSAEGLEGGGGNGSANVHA
Description: Fluo-4 calcium imaging in murine kidney epithelial cells. The settings on record: Pkd1^−/− cells, 100 nM perfused. As for the experimental part: Cells were plated on coverslips and loaded with Fluo-4 (Molecular Probes) diluted in DMSO/pluronic for 30 minutes prior to imaging. Cells were perfused with a calcium imaging buffer (HEPES, NaCl, KCl, MgSO4 and CaCl2) ±100 nM triptolide. All cell traces are indicative of individual cellular fluorescence and calcium release. Data is presented as change of fluorescence over baseline control (before triptolide addition).
Murine kidney epithelial cell lines with differing polycystin-1 or polycystin-2 expression were used to establish a cellular based mechanism for polycystin-2 mediated calcium release in response to triptolide. Because the biochemical purification analysis identified polycystin-2 as a putative triptolide binding protein, Applicant assessed whether the calcium release was dependent upon expression of polycystin-1. Epithelial cells derived from the proximal nephric tubules of Pkd1^−/− mice were first examined to determine if calcium release was observed when 100 nM of triptolide was perfused through the imaging chamber. […] To strengthen the evidence that polycystin-2 was necessary for calcium release elicited by triptolide addition, it was reconstituted by stable expression of Pkd2 into the background of Pkd2^−/− cells, which were assessed for sensitivity to triptolide.

In data set [1], `CC(C)[C@]12O[C@H]1[C@@H]1O[C@]13[C@]1(O[C@H]1C[C@H]1C4=C(CC[C@@]13C)C(=O)OC4)[C@@H]2O` [triptolide] showed a cytotoxicity at 24 h, 0.1 µM of 50%. Besides, in data set [2] (by 48 hours), the “cell death in all transfection conditions” value is recorded as “complete cell death”. Further, in data set [2] (cytosolic parvalbumin (NES-PV-GFP), 24 hours), the apoptosis was 15-20%. Further, the “calcium release (Fluo-4 fluorescence)” value in data set [3] is on record as “clear rise in intracellular calcium levels”.
